Literature values, collected in PMC3066409 (Diabetic Medicine, 2010).
Counter-ions that a name gives are not always drawn.

Conditions: prescribing information

| SMILES | Drowsiness |
| --- | --- |
| CCN(CC)CCNC(=O)c1cc(Cl)c(N)cc1OC [metoclopramide] | reported adverse effect |
| Cc1nccn1CC1CCc2c(c3ccccc3n2C)C1=O (centres unmarked) [ondansetron, ondansetron hydrochloride] | reported adverse effect |
